Experimental data as given in patent publication US10294202B2, “Pyrrolidinones as herbicides” (FMC Corporation, priority 2013, dated 2019).

What was measured:
nutsedge, yellow = assay: Test C pre-/postemergence herbicide test; format: in vivo, Cyperus esculentus
How it was run: (§1)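 Test compounds, formulated in a surfactant-containing non-phytotoxic solvent blend, are applied to seeded loam/sand soil (preemergence) and to young plants at the 1- to 4-leaf stage in peat-based medium (postemergence). Plants stay 13 to 15 days under greenhouse conditions, then are scored visually relative to controls, 0 = no effect, 100 = complete control.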

waterhemp = assay: Test C pre-/postemergence herbicide test; format: in vivo, Amaranthus rudis
How it was run: as §1

ragweed = assay: Test C pre-/postemergence herbicide test; format: in vivo, Ambrosia elatior
How it was run: as §1

oat, wild = assay: Test C pre-/postemergence herbicide test; format: in vivo, Avena fatua; conditions: Postemergence
How it was run: as §1

ducksalad = assay: Test B flooded paddy test; format: in vivo, Heteranthera limosa; conditions: 500 g ai/ha, Flood; scale of 0 to 100 where 0 is no effect and 100 is complete control
How it was run: (§2)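 Paddy-water application at a 3 cm flood, young plants having two leaves. Water level maintained; greenhouse, 13–15 days; visual 0–100 control rating.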

soybean = assay: Test C pre-/postemergence herbicide test; format: in vivo, Glycine max
How it was run: as §1

wheat = assay: Test A pre-/postemergence herbicide test; format: in vivo, Triticum aestivum; conditions: Postemergence
How it was run: (§3)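 Planted in loam–sand blend; treated the same day preemergence by directed soil spray, while separately grown plants at one- to two-leaf stage got postemergence spray. Compared visually with untreated controls after approximately 10 days; 100 means complete control.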

wheat (winter wheat) = assay: Test C pre-/postemergence herbicide test; format: in vivo, Triticum aestivum; conditions: for Plant response rating, Wheat: Postemergence
How it was run: as §1

giant foxtail = assay: Test A pre-/postemergence herbicide test; format: in vivo, Setaria faberii
How it was run: as §3

oilseed rape = assay: Test C pre-/postemergence herbicide test; format: in vivo, Brassica napus
How it was run: as §1

pigweed = assay: Test A pre-/postemergence herbicide test; format: in vivo, Amaranthus retroflexus
How it was run: as §3

sedge, umbrella = assay: Test B flooded paddy test; format: in vivo, Cyperus difformis; conditions: 500 g ai/ha, Flood; scale of 0 to 100 where 0 is no effect and 100 is complete control
How it was run: as §2

[1] = Postemergence, 31 g ai/ha, scale 0 to 100 (0 no effect, 100 complete control)
[2] = Postemergence, 62 g ai/ha, scale 0 (no effect) to 100 (complete control)
[3] = Postemergence, 125 g ai/ha, scale 0 to 100 (0 no effect, 100 complete control)
[4] = Postemergence, 250 g ai/ha, scale 0 to 100 (0 no effect, 100 complete control)
[5] = Preemergence, 31 g ai/ha, scale 0 to 100, 0 is no effect and 100 is complete control
[6] = Preemergence, 62 g ai/ha, scale 0 to 100 (0 no effect, 100 complete control)
[7] = Preemergence, 125 g ai/ha, scale 0 to 100 (0 no effect, 100 complete control)
[8] = 31 g ai/ha, scale 0 to 100 (0 no effect, 100 complete control)
[9] = 62 g ai/ha, scale 0 (no effect) to 100 (complete control)
[10] = 125 g ai/ha, scale 0 to 100 (0 no effect, 100 complete control)
[11] = 250 g ai/ha, scale 0 to 100 (0 no effect, 100 complete control)
[12] = Postemergence, 125 g ai/ha, visual rating on 0 to 100 scale (0 no effect, 100 complete control), approx. 10 days
[13] = Postemergence, 500 g ai/ha, 0 to 100 scale (0 no effect, 100 complete control)
[14] = Preemergence, 125 g ai/ha, 0 to 100 scale where 0 is no effect and 100 is complete control
[15] = Preemergence, 500 g ai/ha, visual rating on 0 to 100 scale (0 no effect, 100 complete control)

CN1CC(c2ccc(F)c(F)c2)C(C(=O)Nc2cccc(F)c2F)C1=O (stereo not drawn) [Compound 303]
Plant response rating, Nutsedge, Yellow (nutsedge, yellow; [1]): 0
Plant response rating, Nutsedge, Yellow (nutsedge, yellow; [2]): 0
Plant response rating, Nutsedge, Yellow (nutsedge, yellow; [3]): 0
Plant response rating, Nutsedge, Yellow (nutsedge, yellow; [4]): 0
Nutsedge, Yellow plant response rating (nutsedge, yellow; [5]): 0
Nutsedge, Yellow plant response rating (nutsedge, yellow; [6]): 0
Plant response rating, Nutsedge, Yellow (nutsedge, yellow; [7]): 0
Plant response rating (scale of 0 to 100), Nutsedge, Yellow (nutsedge, yellow; Preemergence, 250 g ai/ha): 25
Plant response rating, Waterhemp (waterhemp; [1]): 0
Plant response rating, Waterhemp (waterhemp; [2]): 35
Plant response rating, Waterhemp (waterhemp; [3]): 0
Plant response rating, Waterhemp (waterhemp; [4]): 25
Waterhemp plant response rating (waterhemp; [5]): 40
Waterhemp plant response rating (waterhemp; [6]): 65
Plant response rating, Waterhemp (waterhemp; [7]): 65
Plant response rating (scale of 0 to 100), Waterhemp (waterhemp; Preemergence, 250 g ai/ha): 75
Plant response rating, Ragweed (ragweed; [1]): 0
Plant response rating, Ragweed (ragweed; [2]): 0
Plant response rating, Ragweed (ragweed; [3]): 40
Plant response rating, Ragweed (ragweed; [4]): 55
Ragweed plant response rating (ragweed; [5]): 5
Ragweed plant response rating (ragweed; [6]): 70
Plant response rating, Ragweed (ragweed; [7]): 75
Plant response rating (scale of 0 to 100), Ragweed (ragweed; Preemergence, 250 g ai/ha): 80
Plant response rating, Oat, Wild (oat, wild; [8]): 0
Plant response rating, Oat, Wild (oat, wild; [9]): 0
Plant response rating, Oat, Wild (oat, wild; [10]): 0
Plant response rating, Oat, Wild (oat, wild; [11]): 0
Plant response rating, Ducksalad (ducksalad): 100
Plant response rating, Soybean (soybean; [1]): 0
Plant response rating, Soybean (soybean; [2]): 0
Plant response rating, Soybean (soybean; [3]): 0
Plant response rating, Soybean (soybean; [4]): 0
Soybean plant response rating (soybean; [5]): 0
Soybean plant response rating (soybean; [6]): 0
Plant response rating, Soybean (soybean; [7]): 0
Plant response rating (scale of 0 to 100), Soybean (soybean; Preemergence, 250 g ai/ha): 20
Plant response rating, Wheat (wheat; 125 g ai/ha, visual rating on 0 to 100 scale (0 no effect, 100 complete control), approx. 10 days): 50
Plant response rating, Wheat (wheat; 500 g ai/ha, 0 to 100 scale (0 no effect, 100 complete control)): 60
Plant response rating, Wheat (wheat (winter wheat); [8]): 0
Plant response rating, Wheat (wheat (winter wheat); [9]): 0
Plant response rating, Wheat (wheat (winter wheat); [10]): 0
Plant response rating, Wheat (wheat (winter wheat); [11]): 0
Wheat plant response rating (wheat (winter wheat); [5]): 0
Wheat plant response rating (wheat (winter wheat); [6]): 75
Plant response rating (scale of 0 to 100), Wheat (wheat (winter wheat); Preemergence, 250 g ai/ha): 90
Plant response rating, Foxtail, Giant (giant foxtail; [12]): 80
Plant response rating, Foxtail, Giant (giant foxtail; [13]): 80
Plant response rating, Foxtail, Giant (giant foxtail; [14]): 90
Foxtail, Giant plant response rating (giant foxtail; [15]): 90
Plant response rating, Oilseed Rape (oilseed rape; [1]): 0
Plant response rating, Oilseed Rape (oilseed rape; [2]): 0
Plant response rating, Oilseed Rape (oilseed rape; [3]): 0
Plant response rating, Oilseed Rape (oilseed rape; [4]): 30
Oilseed Rape plant response rating (oilseed rape; [5]): 0
Oilseed Rape plant response rating (oilseed rape; [6]): 35
Plant response rating, Oilseed Rape (oilseed rape; [7]): 80
Plant response rating (scale of 0 to 100), Oilseed Rape (oilseed rape; Preemergence, 250 g ai/ha): 85
Plant response rating, Pigweed (pigweed; [12]): 40
Plant response rating, Pigweed (pigweed; [13]): 60
Plant response rating, Pigweed (pigweed; [14]): 20
Pigweed plant response rating (pigweed; [15]): 50
Plant response rating, Sedge, Umbrella (sedge, umbrella): 0
